The values below come from US20170165294A1, “METHOD AND APPARATUS FOR ADMINISTERING GASES INCLUDING NITRIC OXIDE TO ADDRESS FIBROSIS” (priority 2015, published 2017).

The subject of data set [1] is NF-κB. Kind of data set: LPS-induced pulmonary NF-κB activation. Type of data set: in vivo, mice. Particulars: H2 and/or NO treatment.
In data set [2] the test system is myofibroblasts. Particulars: rat, in vivo; cited from earlier work.
The test system of data set [3] is HIF. The following applies: cited from earlier work.
For data set [4], the system named is rats. Particulars: inhaled; cited from earlier work.
For data set [5], the system named is mice with intratracheal administration of LPS. Kind of data set: LPS-induced lung injury in mice (intratracheal LPS). Type of data set: in vivo. Particulars: for lung injury: 2% H2 and/or 20 ppm NO for 3 hours starting at 5 minutes or 3 hours after LPS administration; for pulmonary inflammation / cell apoptosis: H2 and/or NO treatment; for cell apoptosis: pulmonary.

For data set [6], the system named is neonatal piglets. Particulars: cited from earlier work; for lung collagen accumulation: short-term inhaled exposure, neonatal piglets.
Data set [7] relates to polymicrobial sepsis. Kind of data set: Polymicrobial sepsis-induced lung injury. Type of data set: in vivo. Particulars: H2 and/or NO treatment. The text has this:
However until applicants' discovery, there has not been a successful combination of hydrogen gas with breathing gas using the claimed apparatus and methods. Applicants have discovered that NO's effect as an antioxidant may be enhanced by eliminating highly reactive by-products of NO inhalation such as peroxynitrite, by adding H2 to inhaled NO gas.

Data set [8] concerns brain ischemia-reperfusion (I/R). The following applies: inhaled; oxidative stress induced by focal ischemia-reperfusion; cited from earlier work.
For data set [9], the system named is chrondrocytes. Particulars: cited from earlier work.
Data set [10] concerns neonatal rats. The following applies: compared with control rats; cited from earlier work.

Like-named read-outs stand apart in the source and are kept apart here.

Consider `[N]=O` [NO, nitric oxide], for which the “LPS-induced pulmonary early and late NF-κB activation” value in [1] is recorded as “inhibited”. In addition, in [2], the collagen synthesis entry is “inhibiting”; the “fibroblast number and differentiation” value is recorded as “reducing”. For the same molecule, the “effect on HIF” value in data set [3] (high doses and after 30 minutes) is “inhibitory”. For the same molecule, the “effect on HIF” value in data set [3] (low dose, for 30 minutes, during hypoxia) was “stimulates”. The “survival in high O2 exposure” value in data set [4] is “increase survival”. Besides, in data set [5], the lung injury entry is “significantly improved”, the pulmonary inflammation entry is “down-regulated” and the cell apoptosis result is on record as “down-regulated”. Also, the “lung collagen content after recovery” value in data set [6] (after a 3-day recovery period in RA) is “significant decline”. In addition, in [6], the lung collagen accumulation entry was “increases”. Moreover, the “lung injury in polymicrobial sepsis” value in data set [7] is “significantly attenuated”.
Turning to `O=O` [O2, oxygen], the lung collagen accumulation result in data set [6] is recorded as “increases”.
With `[HH]` [H2, hydrogen], the “LPS-induced pulmonary early and late NF-κB activation” value in data set [1] was “inhibited”. For the same molecule, the brain injury entry in data set [8] is given as “markedly suppressed”. Further, in data set [9], the “generation of hydroxyl radicals and peroxynitrite” value is listed as “selectively reduce”. Also, in [5], the lung injury result was “significantly improved”, the pulmonary inflammation entry is “down-regulated” and the cell apoptosis result is on record as “down-regulated”. Also, the “lung injury in polymicrobial sepsis” value in data set [7] is reported as “significantly attenuated”.
Take `COC(=O)[C@@H](N)CCCNC(=N)N[N+](=O)[O-]` [Nw-nitro-1-arginine methyl ester]: the “survival of exposure to >95% O2” value in [10] was “significantly fewer survived”.
